Test results: patent publication US20100041089A1, “IMPROVED METHOD FOR DETECTING CHEMICAL […]” (priority 2006, published 2010)

Tested on: yeast genes (expressed mRNA)
Experiment: DNA chip measurement of expressed mRNA of yeast genes after culture with a toxic chemical substance
Type: cell-based, Saccharomyces cerevisiae S288C
Details: for level of expressed mRNA in the presence of chemical substance / level in the absence of chemical substance: cultured two hours with the chemical substance; for The level of expressed mRNA in the presence of chemical substance/The level of expressed mRNA in the absence of chemical substance: cultured two hours with substance
In short: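 Two-hour exposure of growing S. cerevisiae S288C (YPD, 25° C) to a sublethal toxicant preceded RNA isolation. Fluorescent cDNA was hybridized to a whole-genome array; a treated-to-untreated signal ratio of two or more was taken as significant.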

## [Cl][Hg][Cl] [(3), HgCl2]
Yeast gene YNL058C
  level of expressed mRNA in the presence of chemical substance / level in the absence of chemical substance: 2.1
Yeast gene YNL063W
  level of expressed mRNA in the presence of chemical substance / level in the absence of chemical substance: 0.9
Yeast gene YNL074C
  The level of expressed mRNA in the presence of chemical substance/The level of expressed mRNA in the absence of chemical substance: 1.8
Yeast gene YNL092W
  The level of expressed mRNA in the presence of chemical substance/The level of expressed mRNA in the absence of chemical substance: 2.4
Yeast gene YNL115C
  The level of expressed mRNA in the presence of chemical substance/The level of expressed mRNA in the absence of chemical substance: 1.6
Yeast gene YNL156C
  The level of expressed mRNA in the presence of chemical substance/The level of expressed mRNA in the absence of chemical substance: 0.9
Yeast gene YNL176C
  level of expressed mRNA in the presence of chemical substance / level in the absence of chemical substance: 2.9
Yeast gene YNL194C
  level of expressed mRNA in the presence of chemical substance / level in the absence of chemical substance: 2.0
Yeast gene YNL200C
  level of expressed mRNA in the presence of chemical substance / level in the absence of chemical substance: 3.6
Yeast gene YNL234W
  The level of expressed mRNA in the presence of chemical substance/The level of expressed mRNA in the absence of chemical substance: 0.6
Yeast gene YNL253W
  level of expressed mRNA in the presence of chemical substance / level in the absence of chemical substance: 0.6
Yeast gene YNL276C
  level of expressed mRNA in the presence of chemical substance / level in the absence of chemical substance: 1.9
Yeast gene YNL281W
  The level of expressed mRNA in the presence of chemical substance/The level of expressed mRNA in the absence of chemical substance: 2.0
Yeast gene YNL305C
  The level of expressed mRNA in the presence of chemical substance/The level of expressed mRNA in the absence of chemical substance: 2.7
Yeast gene YNR051C
  level of expressed mRNA in the presence of chemical substance / level in the absence of chemical substance: 1.1
Yeast gene YNR068C
  The level of expressed mRNA in the presence of chemical substance/The level of expressed mRNA in the absence of chemical substance: 2.3
Yeast gene YOL026C
  level of expressed mRNA in the presence of chemical substance / level in the absence of chemical substance: 0.7
Yeast gene YOL032W
  The level of expressed mRNA in the presence of chemical substance/The level of expressed mRNA in the absence of chemical substance: 2.0
Yeast gene YOL036W
  The level of expressed mRNA in the presence of chemical substance/The level of expressed mRNA in the absence of chemical substance: 1.3
Yeast gene YOL047C
  The level of expressed mRNA in the presence of chemical substance/The level of expressed mRNA in the absence of chemical substance: 1.1
Yeast gene YOL071W
  The level of expressed mRNA in the presence of chemical substance/The level of expressed mRNA in the absence of chemical substance: 1.7
Yeast gene YOL082W
  The level of expressed mRNA in the presence of chemical substance/The level of expressed mRNA in the absence of chemical substance: 1.6
Yeast gene YOL083W
  The level of expressed mRNA in the presence of chemical substance/The level of expressed mRNA in the absence of chemical substance: 1.2
Yeast gene YOL117W
  The level of expressed mRNA in the presence of chemical substance/The level of expressed mRNA in the absence of chemical substance: 0.5
Yeast gene YOL131W
  The level of expressed mRNA in the presence of chemical substance/The level of expressed mRNA in the absence of chemical substance: 0.6
Yeast gene YOL150C
  The level of expressed mRNA in the presence of chemical substance/The level of expressed mRNA in the absence of chemical substance: 9.9
Yeast gene YOL162W
  The level of expressed mRNA in the presence of chemical substance/The level of expressed mRNA in the absence of chemical substance: 1.7
Yeast gene YOR019W
  The level of expressed mRNA in the presence of chemical substance/The level of expressed mRNA in the absence of chemical substance: 0.8
Yeast gene YOR022C
  level of expressed mRNA in the presence of chemical substance / level in the absence of chemical substance: 1.1
Yeast gene YOR087W
  level of expressed mRNA in the presence of chemical substance / level in the absence of chemical substance: 1.8
Yeast gene YOR138C
  level of expressed mRNA in the presence of chemical substance / level in the absence of chemical substance: 0.7
Yeast gene YOR197W
  The level of expressed mRNA in the presence of chemical substance/The level of expressed mRNA in the absence of chemical substance: 1.1
Yeast gene YOR253W
  level of expressed mRNA in the presence of chemical substance / level in the absence of chemical substance: 1.0
Yeast gene YOR267C
  level of expressed mRNA in the presence of chemical substance / level in the absence of chemical substance: 1.0
Yeast gene YOR325W
  level of expressed mRNA in the presence of chemical substance / level in the absence of chemical substance: 1.5
Yeast gene YPL005W
  level of expressed mRNA in the presence of chemical substance / level in the absence of chemical substance: 1.0
Yeast gene YPL087W
  The level of expressed mRNA in the presence of chemical substance/The level of expressed mRNA in the absence of chemical substance: 3.0
Yeast gene YPL150W
  level of expressed mRNA in the presence of chemical substance / level in the absence of chemical substance: 1.6
Yeast gene YPL152W
  level of expressed mRNA in the presence of chemical substance / level in the absence of chemical substance: 1.4
Yeast gene YPL168W
  level of expressed mRNA in the presence of chemical substance / level in the absence of chemical substance: 0.5
Yeast gene YPL180W
  level of expressed mRNA in the presence of chemical substance / level in the absence of chemical substance: 0.7
Yeast gene YPL188W
  level of expressed mRNA in the presence of chemical substance / level in the absence of chemical substance: 2.9
Yeast gene YPL196W
  The level of expressed mRNA in the presence of chemical substance/The level of expressed mRNA in the absence of chemical substance: 1.3
Yeast gene YPL206C
  The level of expressed mRNA in the presence of chemical substance/The level of expressed mRNA in the absence of chemical substance: 1.4
Yeast gene YPL221W
  level of expressed mRNA in the presence of chemical substance / level in the absence of chemical substance: 1.0
Yeast gene YPL222W
  The level of expressed mRNA in the presence of chemical substance/The level of expressed mRNA in the absence of chemical substance: 0.8
Yeast gene YPL225W
  level of expressed mRNA in the presence of chemical substance / level in the absence of chemical substance: 1.0
Yeast gene YPR023C
  The level of expressed mRNA in the presence of chemical substance/The level of expressed mRNA in the absence of chemical substance: 1.2
Yeast gene YPR049C
  level of expressed mRNA in the presence of chemical substance / level in the absence of chemical substance: 1.5
Yeast gene YPR146C
  level of expressed mRNA in the presence of chemical substance / level in the absence of chemical substance: 1.3
Yeast gene YPR148C
  level of expressed mRNA in the presence of chemical substance / level in the absence of chemical substance: 0.8
Yeast gene YPR151C
  The level of expressed mRNA in the presence of chemical substance/The level of expressed mRNA in the absence of chemical substance: 1.5
Yeast gene YPR172W
  level of expressed mRNA in the presence of chemical substance / level in the absence of chemical substance: 2.2
